According to patent US7247634B2, “Rifamycin derivatives effective against drug-resistant microbes” (Cumbre Pharmaceuticals Inc., priority 2004, dated 2007):
Values after ≈ are worked out from the molar mass of the structure shown.

Experiments:
Assay type in all cases: cell-based
[1] = system: Staphylococcus epidermidis ATCC12228; experiment: MIC, microbroth dilution (NCCLS); conditions: rifS strain, Cation-Adjusted Mueller-Hinton Broth, 37° C., read-out: Antimicrobial activity (MIC)
[2] = system: Streptococcus pyogenes ATCC19615; experiment: MIC, microbroth dilution (NCCLS); conditions: rifS strain, THY Broth, 37° C., read-out: Antimicrobial activity (MIC)
[3] = system: Streptococcus pneumoniae ATCC6303; experiment: MIC, microbroth dilution (NCCLS); conditions: rifS strain, THY Broth with 1 mg/mL catalase, 5% CO2, 37° C., read-out: Antimicrobial activity (MIC)
[4] = system: Staphylococcus aureus ATCC29213; experiment: MIC, microbroth dilution (NCCLS); conditions: rifS strain, Cation-Adjusted Mueller-Hinton Broth, 37° C., read-out: Antimicrobial activity (MIC)
[5] = system: Escherichia coli ATCC25922; experiment: MIC, microbroth dilution (NCCLS); conditions: rifS strain, Cation-Adjusted Mueller-Hinton Broth, 37° C., read-out: Antimicrobial activity (MIC)
[6] = system: Enterococcus faecalis ATCC29212; experiment: MIC, microbroth dilution (NCCLS); conditions: rifS strain, BHI Broth, 37° C., read-out: Antimicrobial activity (MIC)
[7] = system: Staphylococcus aureus ATCC29213 rpoB^H418Y; experiment: microbe, parasite or virus in culture; conditions: ATCC29213, read-out: Antimicrobial activity (MIC)
Protocol: (§1) Representative compounds were assayed for antimicrobial activity as follows: Minimum Inhibitory Concentrations (“MICs”) were determined by the microbroth dilution method as per NCCLS guidelines (National Committee for Clinical Laboratory Standards. 2000. Methods for dilution antimicrobial susceptibility tests for bacteria that grow aerobically, 5th ed. M7-A5. National Committee for Clinical Laboratory Standards, Wayne, Pa.), except that all growth incubations were conducted at 37° C. Bacterial cultures were tested in the following bacteriological media: S. aureus, S. epidermidis, and E. coli in Cation-Adjusted Mueller-Hinton Broth, S. pneumoniae in THY Broth supplemented with 1 mg/mL catalase under 5% CO2 atmosphere, S. pyogenes in THY Broth, E. faecalis in BHI Broth, H. influenzae in BHI Broth supplemented with 0.75 μL of 1 mg/mL NAD and 150 μL of 1 mg/ml hematin per 5 mL, and M. smegmatis in Middlebrook Broth plus ADC Enrichment.
(§2) S. aureus ATCC 29213 RpoB^H418Y is a rifampin-resistant strain with a mutation in RNA polymerase, the biological target of rifamycin antibiotics. […] S. aureus EN1252a gyrA^S84L grlA^S80F is a quinolone-resistant strain due to double mutations to DNA gyrase and topoisomerase IV, the two biological targets for quinolone antibiotics.

[8] = system: Staphylococcus aureus EN1252a gyrA^S84L grlA^S80F; experiment: microbe, parasite or virus in culture; conditions: read-out: Antimicrobial activity (MIC)
Protocol: as §1, §2

[9] = system: Staphylococcus aureus ATCC29213 rpoB^D417Y; experiment: microbe, parasite or virus in culture; conditions: ATCC29213, read-out: Antimicrobial activity (MIC)
Protocol: as §1, §2

[10] = system: Haemophilus influenzae ATCC10211; experiment: MIC, microbroth dilution (NCCLS); conditions: rifS strain, BHI Broth with NAD and hematin, 37° C., read-out: Antimicrobial activity (MIC)
[11] = system: Mycobacterium smegmatis ATCC700084; experiment: MIC, microbroth dilution (NCCLS); conditions: Mycolicibacterium smegmatis, rifS strain, Middlebrook Broth plus ADC Enrichment, 37° C., read-out: Antimicrobial activity (MIC)

## CO[C@H]1/C=C/O[C@@]2(C)Oc3c(C)c(O)c4c(c3C2=O)C(=O)C(N2CCC(NC3CCN(c5c(F)cc6c(=O)c(C(=O)O)cn(C7CC7)c6c5Cl)C3)CC2)=C(NC(=O)/C(C)=C\C=C\[C@H](C)[C@H](O)[C@@H](C)[C@@H](O)[C@@H](C)[C@H](OC(C)=O)[C@@H]1C)C4=O (mixture of isomers) [Example 29, (R/S)-3-{4-[1-(3-Carboxy-8-chloro-1-cyclopropyl-6-fluoro-4-oxo-1,4-dihydroquinolin-7-yl)-pyrrolidin-3-ylamino]-piperidin-1-yl}rifamycin S]
[1]
  MIC: 0.008 to 0.063 µg/mL (≈ 0.007 to 0.0551 µM)
[2]
  MIC: 0.008 to 0.063 µg/mL (≈ 0.007 to 0.0551 µM)
[3]
  MIC: 0.008 to 0.125 µg/mL (≈ 0.007 to 0.109 µM)
[4]
  MIC: 0.004 to 0.5 µg/mL (≈ 0.0035 to 0.438 µM)
[5]
  MIC: 0.125 to 8 µg/mL (≈ 0.109 to 7 µM)
[6]
  MIC: 2 to 32 µg/mL (≈ 1.75 to 28 µM)
[7]
  MIC: 0.06 to 16 µg/mL (≈ 0.0525 to 14 µM)
[8]
  MIC: 0.004 to 0.5 µg/mL (≈ 0.0035 to 0.438 µM)
[9]
  MIC: 0.06 to 32 µg/mL (≈ 0.0525 to 28 µM)
[10]
  MIC: 0.125 to 2 µg/mL (≈ 0.109 to 1.75 µM)
[11]
  MIC: 0.5 to 64 µg/mL

## COc1c(N2CCC(NC3CCN(C4=C5NC(=O)/C(C)=C\C=C\[C@H](C)[C@H](O)[C@@H](C)[C@@H](O)[C@@H](C)[C@H](OC(C)=O)[C@H](C)[C@@H](OC)/C=C/O[C@@]6(C)Oc7c(C)c(O)c(c(c7C6=O)C4=O)C5=O)CC3)C2)c(F)cc2c(=O)c(C(=O)O)cn(C3CC3)c12 (mixture of isomers) [Example 30, (R/S)-3-{4-[1-(3-Carboxy-1-cyclopropyl-6-fluoro-8-methoxy-4-oxo-1,4-dihydroquinolin-7-yl)-pyrrolidin-3-ylamino]-piperidin-1-yl}rifamycin S]
[1]
  MIC: 0.008 to 0.063 µg/mL (≈ 0.00703 to 0.0553 µM)
[2]
  MIC: 0.008 to 0.063 µg/mL (≈ 0.00703 to 0.0553 µM)
[3]
  MIC: 0.008 to 0.125 µg/mL (≈ 0.00703 to 0.11 µM)
[4]
  MIC: 0.004 to 0.5 µg/mL (≈ 0.00351 to 0.439 µM)
[5]
  MIC: 0.125 to 8 µg/mL (≈ 0.11 to 7.03 µM)
[6]
  MIC: 2 to 32 µg/mL (≈ 1.76 to 28.1 µM)
[7]
  MIC: 0.06 to 16 µg/mL (≈ 0.0527 to 14.1 µM)
[8]
  MIC: 0.004 to 0.5 µg/mL (≈ 0.00351 to 0.439 µM)
[9]
  MIC: 0.06 to 32 µg/mL (≈ 0.0527 to 28.1 µM)
[10]
  MIC: 0.125 to 2 µg/mL (≈ 0.11 to 1.76 µM)
[11]
  MIC: 0.5 to 64 µg/mL

## COc1c(N2CCCC(NC3CCN(C4=C5NC(=O)/C(C)=C\C=C\[C@H](C)[C@H](O)[C@@H](C)[C@@H](O)[C@@H](C)[C@H](OC(C)=O)[C@H](C)[C@@H](OC)/C=C/O[C@@]6(C)Oc7c(C)c(O)c(c(c7C6=O)C4=O)C5=O)CC3)C2)c(F)cc2c(=O)c(C(=O)O)cn(C3CC3)c12 (mixture of isomers) [Example 32, (R/S)-3-{4-[1-(3-Carboxy-1-cyclopropyl-6-fluoro-8-methoxy-4-oxo-1,4-dihydroquinolin-7-yl)-piperidin-3-ylamino]-piperidin-1-yl}rifamycin S]
[1]
  MIC: 0.008 to 0.063 µg/mL (≈ 0.00694 to 0.0547 µM)
[2]
  MIC: 0.008 to 0.063 µg/mL (≈ 0.00694 to 0.0547 µM)
[3]
  MIC: 0.008 to 0.125 µg/mL (≈ 0.00694 to 0.108 µM)
[4]
  MIC: 0.004 to 0.5 µg/mL (≈ 0.00347 to 0.434 µM)
[5]
  MIC: 0.125 to 8 µg/mL (≈ 0.108 to 6.94 µM)
[6]
  MIC: 2 to 32 µg/mL (≈ 1.74 to 27.8 µM)
[7]
  MIC: 0.06 to 16 µg/mL (≈ 0.0521 to 13.9 µM)
[8]
  MIC: 0.004 to 0.5 µg/mL (≈ 0.00347 to 0.434 µM)
[9]
  MIC: 0.06 to 32 µg/mL (≈ 0.0521 to 27.8 µM)
[10]
  MIC: 0.125 to 2 µg/mL (≈ 0.108 to 1.74 µM)
[11]
  MIC: 0.5 to 64 µg/mL

## COc1c(N2CCC(N(C)C3CCN(C4=C5NC(=O)/C(C)=C\C=C\[C@H](C)[C@H](O)[C@@H](C)[C@@H](O)[C@@H](C)[C@H](OC(C)=O)[C@H](C)[C@@H](OC)/C=C/O[C@@]6(C)Oc7c(C)c(O)c(c(c7C6=O)C4=O)C5=O)CC3)C2)c(F)cc2c(=O)c(C(=O)O)cn(C3CC3)c12 (mixture of isomers) [Example 34]
[1]
  MIC: 0.008 to 0.063 µg/mL (≈ 0.00694 to 0.0547 µM)
[2]
  MIC: 0.008 to 0.063 µg/mL (≈ 0.00694 to 0.0547 µM)
[3]
  MIC: 0.008 to 0.125 µg/mL (≈ 0.00694 to 0.108 µM)
[4]
  MIC: 0.004 to 0.5 µg/mL (≈ 0.00347 to 0.434 µM)
[5]
  MIC: 0.125 to 8 µg/mL (≈ 0.108 to 6.94 µM)
[6]
  MIC: 2 to 32 µg/mL (≈ 1.74 to 27.8 µM)
[7]
  MIC: 0.06 to 16 µg/mL (≈ 0.0521 to 13.9 µM)
[8]
  MIC: 0.004 to 0.5 µg/mL (≈ 0.00347 to 0.434 µM)
[9]
  MIC: 0.06 to 32 µg/mL (≈ 0.0521 to 27.8 µM)
[10]
  MIC: 0.125 to 2 µg/mL (≈ 0.108 to 1.74 µM)
[11]
  MIC: 0.5 to 64 µg/mL

## CO[C@H]1/C=C/O[C@@]2(C)Oc3c(C)c(O)c4c(c3C2=O)C(=O)C(N2CCC(NCC3CCN(c5c(F)cc6c(=O)c(C(=O)O)cn(C7CC7)c6c5Cl)C3)CC2)=C(NC(=O)/C(C)=C\C=C\[C@H](C)[C@H](O)[C@@H](C)[C@@H](O)[C@@H](C)[C@H](OC(C)=O)[C@@H]1C)C4=O (mixture of isomers) [Example 36, (R/S)-3-{4-[1-(3-Carboxy-8-chloro-1-cyclopropyl-6-fluoro-4-oxo-1,4-dihydroquinolin-7-yl)-(pyrrolidin-3-ylmethyl)-amino]-piperidin-1-yl}rifamycin S]
[1]
  MIC: 0.008 to 0.063 µg/mL (≈ 0.00692 to 0.0545 µM)
[2]
  MIC: 0.008 to 0.063 µg/mL (≈ 0.00692 to 0.0545 µM)
[3]
  MIC: 0.008 to 0.125 µg/mL (≈ 0.00692 to 0.108 µM)
[4]
  MIC: 0.004 to 0.5 µg/mL (≈ 0.00346 to 0.432 µM)
[5]
  MIC: 0.125 to 8 µg/mL (≈ 0.108 to 6.92 µM)
[6]
  MIC: 2 to 32 µg/mL (≈ 1.73 to 27.7 µM)
[7]
  MIC: 0.06 to 16 µg/mL (≈ 0.0519 to 13.8 µM)
[8]
  MIC: 0.004 to 0.5 µg/mL (≈ 0.00346 to 0.432 µM)
[9]
  MIC: 0.06 to 32 µg/mL (≈ 0.0519 to 27.7 µM)
[10]
  MIC: 0.125 to 2 µg/mL (≈ 0.108 to 1.73 µM)
[11]
  MIC: 0.5 to 64 µg/mL

## CO[C@H]1/C=C/O[C@@]2(C)Oc3c(C)c(O)c4c(c3C2=O)C(=O)C(N2CCC(NCC3CCN(c5nc6c(cc5F)c(=O)c(C(=O)O)cn6-c5ccc(F)cc5F)C3)CC2)=C(NC(=O)/C(C)=C\C=C\[C@H](C)[C@H](O)[C@@H](C)[C@@H](O)[C@@H](C)[C@H](OC(C)=O)[C@@H]1C)C4=O (mixture of isomers) [Example 37]
[1]
  MIC: 0.008 to 0.063 µg/mL (≈ 0.00669 to 0.0527 µM)
[2]
  MIC: 0.008 to 0.063 µg/mL (≈ 0.00669 to 0.0527 µM)
[3]
  MIC: 0.008 to 0.125 µg/mL (≈ 0.00669 to 0.105 µM)
[4]
  MIC: 0.004 to 0.5 µg/mL (≈ 0.00335 to 0.418 µM)
[5]
  MIC: 0.125 to 8 µg/mL (≈ 0.105 to 6.69 µM)
[6]
  MIC: 2 to 32 µg/mL (≈ 1.67 to 26.8 µM)
[7]
  MIC: 0.06 to 16 µg/mL (≈ 0.0502 to 13.4 µM)
[8]
  MIC: 0.004 to 0.5 µg/mL (≈ 0.00335 to 0.418 µM)
[9]
  MIC: 0.06 to 32 µg/mL (≈ 0.0502 to 26.8 µM)
[10]
  MIC: 0.125 to 2 µg/mL (≈ 0.105 to 1.67 µM)
[11]
  MIC: 0.5 to 64 µg/mL
